Entries after “also recorded” stand apart in the source; their conditions may differ.
Columns and labels:
[1] = background; compared with a therapy session of up to several hours; cited from earlier work
[2] = molecular target: T1, 5-HT2A receptors (Mus musculus, UniProt P35363); experiment: LSD-induced head twitch response in mice, 5-HT2A antagonist given i.v. after LSD; assay type: in vivo, C57BL/6J mice; parameters: widely used to explore the effect of treatments on 5-HT2A receptors in vivo; from tissue; host or cells: whole living male C57BL/6J mice (behavioural read-out); conditions: for head-twitch response (cumulative head-twitches): LSD 0.32 mg/kg i.p., monitored until 40 min after agonist dosing; for Result (LSD Combinations tested, summary): summary of Examples 1-17, antagonist administered after LSD
T1 sequence (P35363 whole entry): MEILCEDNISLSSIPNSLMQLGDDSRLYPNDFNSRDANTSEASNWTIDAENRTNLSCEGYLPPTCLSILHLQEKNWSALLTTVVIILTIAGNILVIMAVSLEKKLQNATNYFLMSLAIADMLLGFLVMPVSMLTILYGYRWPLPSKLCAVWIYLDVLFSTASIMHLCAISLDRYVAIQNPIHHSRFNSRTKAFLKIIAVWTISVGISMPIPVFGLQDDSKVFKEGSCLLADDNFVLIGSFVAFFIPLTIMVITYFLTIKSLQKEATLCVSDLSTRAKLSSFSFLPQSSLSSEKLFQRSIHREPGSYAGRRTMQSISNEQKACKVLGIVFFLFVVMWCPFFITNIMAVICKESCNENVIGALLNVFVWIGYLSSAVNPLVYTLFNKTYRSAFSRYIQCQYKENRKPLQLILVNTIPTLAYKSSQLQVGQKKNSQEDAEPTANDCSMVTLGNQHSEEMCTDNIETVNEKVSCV
Description: (§1) See, Keller and Umbreit, Science, 1956, 124: 723). […] The head-shake response is elicited by a wide variety of known hallucinogens such as LSD, psilocybin, psilocin, N,N-dimethyltryptamine (DMT), and mescaline as well as serotonin-releasing agents and direct 5-HT2 agonists. See, Canal and Morgan, Drug Test Anal., 2012, 4, 556-576 2012. 2,5-dimethoxy-4-iodoamphetamine (DOI) has also been reported to elicit head shakes in rats (see Amt and Hyttel Eur. J. Pharmacol., 1989, 161:45; also see Kennett et al., Br. J. Pharmacol., 1994, 111: 797-802) and head-twitches in mice (see Darmani et al., Pharmacol. Biochem. Behav., 1990, 36: […]), both of which were blocked by administration of the fairly selective 5-HT2A antagonist ketanserin. Later studies have confirmed 5-HT2A receptors are the primary, direct mediators of the response and that the headshake response in rats is essentially the same as head-twitches in mice, at least in regards to similarity in appearance and 5-HT2A receptor dependence. See, Canal and Morgan, Drug Test Anal., 2012, 4, 556-576 2012.
Male C57BL/6J mice (approximately 25 g) was group housed in stock room B20D of the Saretius animal at the University of Reading. […]
(§2) At T=−60 min, C57BL/6J mice were individually housed into transparent observation cages with bedding removed and left to habituate. At T=−2 min, mice were placed into heated cages at 40° C. At T=0 h, groups of 3 mice were dosed intraperitoneally with LSD (0.32 mg/kg). Following dosing, mice were replaced into the heated cages and head-twitch responses continuously scored for 8 min. After 8 min, mice were intravenously dosed via the lateral tail vein with either vehicle 1 (saline) or volinanserin 1 mg/kg in 5 mL/kg dosing volumes. Mice were replaced into the observation cages and head twitch behavior were monitored until 40 min after agonist dosing. Cumulative head-twitch behavior was measured every 2 minutes until 40 minutes after agonist dosing.
At T=−60 min, C57BL/6J mice were individually housed into transparent observation cages with bedding removed and left to habituate. At T=−2 min, mice were placed into heated cages at 40° C. At T=0 h, groups of 3 mice were dosed intraperitoneally with LSD (0.32 mg/kg).

[3] = molecular target: T1, 5-HT2A receptors; experiment: Psilocybin-induced head twitch response in mice, 5-HT2A antagonist given i.v. after psilocybin; assay type: in vivo, C57BL/6J mice; parameters: widely used to explore the effect of treatments on 5-HT2A receptors in vivo; from tissue; host or cells: whole living male C57BL/6J mice (behavioural read-out); conditions: for head-twitch response (cumulative head-twitches): psilocybin 2 mg/kg i.p., monitored until 40 min after agonist dosing; for Result (Psilocybin Combinations tested, summary): summary of Examples 1-17
Description: as §1
Male C57BL/6J mice (approximately 25 g) was group housed in stock room B20D of the Saretius animal at the University of Reading. Animals was maintained under a 12 h light/dark cycle, at 23° C. with humidity controlled
as §2, with “T=−3” for “T=−2”, “psilocybin (2” for “LSD (0.32”, “7” for “8”, “head-twitches were” for “head-twitch behavior was”
as §2, with “At T=−3” for “At T=−2”, “with psilocybin (2” for “with LSD (0.32”, “for 7” for “for 8”, “min. […]” for “min. After 8 min, mice were intravenously dosed via the lateral tail vein with either vehicle 1 (saline) or volinanserin 1 mg/kg in 5 mL/kg dosing volumes.”, “behavior was” for “behavior were”
as §2, with “At T=−3” for “At T=−2”, “with psilocybin (2” for “with LSD (0.32”, “for 7” for “for 8”, “min. […]” for “min. After 8 min, mice were intravenously dosed via the lateral tail vein with either vehicle 1 (saline) or volinanserin 1 mg/kg in 5 mL/kg dosing volumes.”, “behavior was” for “behavior were”
as §2, with “At T=−3” for “At T=−2”, “with psilocybin (2” for “with LSD (0.32”, “for 7” for “for 8”, “min. […]” for “min. After 8 min, mice were intravenously dosed via the lateral tail vein with either vehicle 1 (saline) or volinanserin 1 mg/kg in 5 mL/kg dosing volumes.”, “behavior was” for “behavior were”

[4] = molecular target: T1, 5-HT2A receptors; parameters: head-twitches in mice (see Darmani et al., Pharmacol. Biochem. Behav., 1990); host or cells: living mice (cited study); conditions: mice; 2,5-dimethoxy-4-iodoamphetamine (DOI); cited from earlier work
[5] = molecular target: T2, 5-HT2A receptors (Rattus norvegicus, UniProt P14842); conditions: rats; 2,5-dimethoxy-4-iodoamphetamine (DOI); cited from earlier work
T2 construct: has also been reported to elicit head shakes in rats; host or cells: living rats (cited studies)
T2 sequence (P14842 whole entry): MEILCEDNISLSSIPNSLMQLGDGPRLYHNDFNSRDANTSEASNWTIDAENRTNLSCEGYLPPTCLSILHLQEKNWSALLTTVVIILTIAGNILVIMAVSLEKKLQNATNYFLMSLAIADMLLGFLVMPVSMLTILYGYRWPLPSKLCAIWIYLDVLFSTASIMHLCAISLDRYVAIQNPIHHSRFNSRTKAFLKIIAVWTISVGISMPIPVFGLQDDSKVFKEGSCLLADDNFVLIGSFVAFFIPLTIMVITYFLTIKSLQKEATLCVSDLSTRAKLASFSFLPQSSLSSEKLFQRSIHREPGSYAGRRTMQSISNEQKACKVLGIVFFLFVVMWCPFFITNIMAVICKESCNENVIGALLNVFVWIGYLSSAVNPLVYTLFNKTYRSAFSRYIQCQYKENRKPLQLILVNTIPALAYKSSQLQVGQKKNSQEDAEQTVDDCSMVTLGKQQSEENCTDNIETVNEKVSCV

[6] = system: psilocybin induced head twitches in mice; conditions: psilocybin 2 mg/kg i.p.; quetiapine 1 mg/kg i.v. after T=7 minutes; cumulative head twitches until 40 minutes
Protocol: Mice were dosed intraperitoneally with psilocybin (2 mg/kg) and head-twitch responses were continuously scored for 7 minutes. […] Cumulative head-twitch behavior was measured every 2 minutes until 40 minutes after agonist dosing.

[7] = antagonist 1 mg/kg i.v. after 8 min
[8] = antagonist 1 mg/kg i.v. after 7 min
[9] = antagonist 4 mg/kg i.v. after 7 min
[10] = antagonist administered after psilocybin

CCN(CC)C(=O)[C@@H]1C=C2c3cccc4[nH]cc(c34)C[C@H]2N(C)C1 [LSD]
duration of effects [1]: 12 h

O=c1[nH]c2ccccc2n1CCN1CCN(c2cccc(C(F)(F)F)c2)CC1 [flibanserin]
head-twitch response (cumulative head-twitches) [2, 7]: partially suppressed | head-twitch response (cumulative head-twitches) ([2]; antagonist 4 mg/kg i.v. after 8 min): partially suppressed | Result (LSD Combinations tested, summary) [2]: partial suppression | Result (LSD Combinations tested, summary) ([2]; listed as Flibanserin): Partial suppression of head twitch | head-twitch response (cumulative head-twitches) [3, 8]: partially suppressed | head-twitch response (cumulative head-twitches) [3, 9]: partially suppressed | Result (Psilocybin Combinations tested, summary) [3, 10]: partial suppression | Result (Psilocybin Combinations tested, summary) ([3]; antagonist administered after psilocybin, listed as Flibanserin): Partial suppression of head twitch

O=C(c1ccc(F)cc1)C1CCN(CCn2c(=O)[nH]c3ccccc3c2=O)CC1 [ketanserin]
DOI-elicited head-twitches [4]: blocked | head-twitch response (cumulative head-twitches) ([2]; antagonist 2 mg/kg i.v. after 8 min): completely suppressed | head-twitch response (cumulative head-twitches) ([3]; antagonist 2 mg/kg i.v. after 7 min): completely suppressed | DOI-elicited head shakes [5]: blocked

COc1ccc(NC(=O)Nc2ccc(F)cc2F)cc1-c1c(Br)cnn1C [nelotanserin]
head-twitch response (cumulative head-twitches) [2, 7]: partially suppressed | Result (LSD Combinations tested, summary) [2]: partial suppression | Result (LSD Combinations tested, summary) ([2]; listed as Nelotanserin): Partial suppression of head twitch | head-twitch response (cumulative head-twitches) [3, 8]: partially suppressed | head-twitch response (cumulative head-twitches) [3, 9]: completely suppressed; also recorded: completed suppressed | Result (Psilocybin Combinations tested, summary) [3, 10]: partial suppression | Result (Psilocybin Combinations tested, summary) ([3]; antagonist administered after psilocybin, listed as Nelotanserin): Partial suppression of head twitch, | Result (Psilocybin Combinations tested, summary) ([3]; at high dose): full suppression at high dose

N#Cc1c[nH]c2c(C(=O)N3CCN(CCc4ccc(F)cc4)CC3)cccc12 [pruvanserin]
head-twitch response (cumulative head-twitches) [2, 7]: completely suppressed | Result (LSD Combinations tested, summary) [2]: full suppression | Result (LSD Combinations tested, summary) ([2]; listed as Pruvanserin): Full suppression of head twitch | head-twitch response (cumulative head-twitches) [3, 8]: completely suppressed | Result (Psilocybin Combinations tested, summary) [3, 10]: full ending | Result (Psilocybin Combinations tested, summary) ([3]; antagonist administered after psilocybin, listed as Pruvanserin): Full suppression of head twitch

OCCOCCN1CCN(C2=Nc3ccccc3Sc3ccccc32)CC1 [quetiapine]
head-twitch response [6]: completely suppressed

Cc1nc2sccn2c(=O)c1CCN1CCC(=C(c2ccc(F)cc2)c2ccc(F)cc2)CC1 [ritanserin]
head-twitch response (cumulative head-twitches) [2, 7]: partially suppressed | Result (LSD Combinations tested, summary) [2]: full suppression | Result (LSD Combinations tested, summary) ([2]; listed as Ritanserin): Full suppression of head twitch | head-twitch response (cumulative head-twitches) [3, 8]: completely suppressed | Result (Psilocybin Combinations tested, summary) [3, 10]: full ending | Result (Psilocybin Combinations tested, summary) ([3]; antagonist administered after psilocybin, listed as Ritanserin): Full suppression of head twitch

COc1cccc([C@H](O)C2CCN(CCc3ccc(F)cc3)CC2)c1OC [volinanserin]
head-twitch response (cumulative head-twitches) ([2]; antagonist 1 mg/kg i.v. after 5 min): completely suppressed | head-twitch response (cumulative head-twitches) [2, 7]: completely suppressed | head-twitch response (cumulative head-twitches) ([2]; antagonist 1 mg/kg i.v. after 10 min): completely suppressed | Result (LSD Combinations tested, summary) [2]: full suppression | head-twitch response (cumulative head-twitches) [3, 8]: completely suppressed | Result (Psilocybin Combinations tested, summary) [3, 10]: full ending | Result (Psilocybin Combinations tested, summary) ([3]; antagonist administered after psilocybin, listed as Volinanserin): Full suppression of head twitch

Source: patent US20240000795A1, “METHODS AND COMPOSITIONS RELATING TO CONTROLLING PSYCHEDELIC EFFECTS WITH SEROTONIN RECEPTOR MODULATORS” (Terran Biosciences Inc., priority 2022, published 2024)
